In ChEMBL document CHEMBL1201862, “PubChem BioAssay data set” (2004):
Activity calls are given as the source filed them. Cut-off read from the data, not from the text of the source: actives have a measured IC50 and inactives only a lower limit.

Target: Envelope glycoprotein gp160 (Human immunodeficiency virus 1, UniProt Q6QLK5)
Assay: cell-free HIV fusion peptide-binding blockers – biochemical, uHTS, fluorescence dequenching, […] (AID 1986)

Chain of Envelope glycoprotein gp160 (Q6QLK5 whole entry, the tested form may be a part): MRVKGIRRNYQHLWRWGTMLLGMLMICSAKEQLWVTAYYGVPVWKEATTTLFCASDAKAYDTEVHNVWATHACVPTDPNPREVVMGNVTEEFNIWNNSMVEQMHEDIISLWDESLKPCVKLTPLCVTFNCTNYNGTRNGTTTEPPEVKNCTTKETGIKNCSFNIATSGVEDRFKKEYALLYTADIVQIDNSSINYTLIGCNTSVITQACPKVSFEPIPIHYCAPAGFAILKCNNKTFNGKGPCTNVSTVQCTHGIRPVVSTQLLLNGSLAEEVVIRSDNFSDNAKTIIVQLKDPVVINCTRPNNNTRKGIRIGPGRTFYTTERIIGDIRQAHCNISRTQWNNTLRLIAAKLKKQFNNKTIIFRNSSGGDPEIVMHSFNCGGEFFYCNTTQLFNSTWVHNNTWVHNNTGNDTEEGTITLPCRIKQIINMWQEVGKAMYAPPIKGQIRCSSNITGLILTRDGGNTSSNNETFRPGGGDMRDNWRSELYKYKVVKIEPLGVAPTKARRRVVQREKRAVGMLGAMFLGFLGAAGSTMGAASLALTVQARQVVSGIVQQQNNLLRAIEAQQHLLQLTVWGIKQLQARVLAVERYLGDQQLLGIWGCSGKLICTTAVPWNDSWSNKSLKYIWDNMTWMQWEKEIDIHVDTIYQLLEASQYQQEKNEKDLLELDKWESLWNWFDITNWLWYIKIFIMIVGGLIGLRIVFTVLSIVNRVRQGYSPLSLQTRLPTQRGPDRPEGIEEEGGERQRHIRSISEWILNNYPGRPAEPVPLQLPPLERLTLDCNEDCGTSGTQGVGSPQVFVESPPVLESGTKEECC

Cc1cccc(S(=O)(=O)Nc2nc3ccccc3nc2Nc2cccc(C(=O)O)c2)c1
IC50: 29 µM (active)

O=C(O)c1[nH]c2ccccc2c1C(c1cccc(O)c1)c1c(C(=O)O)[nH]c2ccccc12
IC50: 25.8 µM (active)
